In EP0547708A1, “Saccharin derivative proteolytic enzyme inhibitors” (STERLING WINTHROP INC., priority 1991, dated 1993) one finds Ki data, which are given here for 16 molecules.

This assay addresses T1, human leukocyte elastase (Homo sapiens, UniProt P08246).
T1 sequence (P08246 30-267): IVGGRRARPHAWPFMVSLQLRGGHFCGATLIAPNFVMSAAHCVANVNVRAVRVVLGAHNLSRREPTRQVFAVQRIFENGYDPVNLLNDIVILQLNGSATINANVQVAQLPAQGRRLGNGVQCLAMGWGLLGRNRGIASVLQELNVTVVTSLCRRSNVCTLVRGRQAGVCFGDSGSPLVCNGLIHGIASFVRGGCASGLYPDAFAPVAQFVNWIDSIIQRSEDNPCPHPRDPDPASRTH
The assay is described as follows: Inhibition of human leukocyte elastase in vitro (Ki* = koff/kon). The settings on record: Ki* = koff/kon (rate of reactivation of the enzyme divided by rate of inactivation); koff and kon measured, Ki* then calculated. Type of assay: biochemical.

The structures appear in SMILES notation.

Protocol: Ki*, which is defined as the rate of reactivation of the enzyme divided by the rate of inactivation of the enzyme (koff/kon), was therefore determined instead. The values of koff and kon were measured and Ki* was then calculated.
The value of kon was determined by measuring the enzyme activity of an aliquot of the enzyme as a function of the time after addition of the test compound (inhibitor). […] The value of kon was then obtained by the equation kon = kobs /[I] [formula] wherein [I] is the concentration of the inhibitor. The value of koff was similarly determined, and Ki* was then obtained by the equation Ki * = koff /kon [formula] .

`CC(C)c1cccc2c1C(=O)N(COc1cc(=O)n(C)c3ccccc13)S2(=O)=O` [Example 1C]: the Ki is 0.7 nM.
Turning to `COc1cc(C(C)C)c2c(c1)S(=O)(=O)N(COC1=C(C(C)=O)C(=O)c3ccoc3C1=O)C2=O` [Example 7, 2-(5-acctyl-4,7-dihydro-4,7-dioxobenzofuran-6-yl)oxymethyl-4-isopropyl-6-methoxysaccharin], the Ki is 17 nM.
`COc1cc(C(C)C)c2c(c1)S(=O)(=O)N(COC1=C(Oc3ccccc3)C(=O)N(c3ccccc3)C1)C2=O` [Example 4F]: the Ki was 0.06 nM.
Under `Cc1cc(OCN2C(=O)c3c(C(C)C)cccc3S2(=O)=O)c(C(=O)c2ccccc2)c(=O)o1` [Example 1E] stands 0.035 nM.
Regarding `COc1cc(C(C)C)c2c(c1)S(=O)(=O)N(COc1nc3ccccn3c(=O)c1CN1CCOCC1)C2=O` [Example 5, 2-[3-(4-morpholinylmethyl)-4-oxo-4H-pyrido[1,2-a]pyrimidin-2-yl]oxymethyl-4-isopropyl-6-methoxysaccharin], the Ki is 0.23 nM.
Consider `COc1cc(C(C)C)c2c(c1)S(=O)(=O)N(COC1=CC(=O)OC1(C)C)C2=O` [Example 4E], for which the Ki was 0.093 nM.
As to `COc1cc(C(C)C)c2c(c1)S(=O)(=O)N(COc1c(C(C)=O)c(=O)n(-c3ccccc3)c3ccccc13)C2=O` [Example 3A, 2-(1-phenyl-3-acetylcarbostyryl-4-yl)oxymethyl-4-isopropyl-6-methoxysaccharin], the Ki was 0.43 nM.
Turning to `COc1cc(C(C)C)c2c(c1)S(=O)(=O)N(COC1=C(C)C(=O)C(C)=C(C)C1=O)C2=O` [Example 6, 2-(3,5,6-trimethyl-1,4-dioxo-2,5-cyclohexadien-2-yl)oxymethyl-4-isopropyl-6-methoxysaccharin], the Ki is 0.92 nM.
In the case of `CC(C)c1cccc2c1C(=O)N(COc1cc(-c3ccccc3)oc(=O)c1)S2(=O)=O` [Example 1F], the Ki was 0.22 nM.
As for `COc1cc(C(C)C)c2c(c1)S(=O)(=O)N(COc1c(C(C)=O)c(=O)n(C)c3ccccc13)C2=O` [Example 3B, 2-(1-methyl-3-acetylcarbostyryl-4-yl)oxymethyl-4-isopropyl-6-methoxysaccharin], the Ki is 0.27 nM.
On to `COc1cc(C(C)C)c2c(c1)S(=O)(=O)N(COC1=C(N3CCCCC3)C(=O)N(c3ccccc3)C1)C2=O` [Example 4G], for which the Ki is 0.2 nM.
Take `COc1cc(C(C)C)c2c(c1)S(=O)(=O)N(COC1=C(Cc3ccccc3)C(=O)OC1(C)C)C2=O` [Example 1O]: the Ki was 0.016 nM.
With `CC(C)c1cccc2c1C(=O)N(COC1=CC(=O)OC1)S2(=O)=O` [Example 1A, 2-[(2,5-dihydro-5-oxo-3-furanyl)oxymethyl]-4-isopropylsaccharin] the figure was 0.4 nM; with `COc1cc(C(C)C)c2c(c1)S(=O)(=O)N(COC1=C(CN3CCOCC3)C(=O)OC1)C2=O` [Example 1P], 0.041 nM; with `Cc1cc(OCN2C(=O)c3c(C(C)C)cccc3S2(=O)=O)cc(=O)o1` [Example 1D], 0.25 nM.
With `CC(C)c1cccc2c1C(=O)N(COc1cc(=O)oc3ccccc13)S2(=O)=O` [Example 1B] the figure was 0.22 nM.
